# Assay results as given in the PolyMetriX glass transition set.
row,Structure (SMILES),glass transition temperature [°C]
1,*COc1ccc(C(c2ccc(O*)cc2)(C(F)(F)F)C(F)(F)F)cc1 (repeat unit),123.00
2,*C(=O)Nc1ccc(C(c2ccc(NC(=O)c3ccc4c(c3)C(=O)N(c3cccc5c(N6C(=O)c7ccc(*)cc7C6=O)cccc35)C4=O)cc2)(C(F)(F)F)C(F)(F)F)cc1 (repeat unit),250.00
3,*CC(=O)Nc1ccc(NC(=O)CN2C(=O)c3ccc(C(=O)c4ccc5c(c4)C(=O)N(*)C5=O)cc3C2=O)cc1 (repeat unit),250.00
4,*Oc1ccc(OC(=O)c2ccc(C(*)=O)cc2)cc1 (repeat unit),267.00
5,*Nc1ccc(NC(=O)CCCCC(*)=O)cc1 (repeat unit),133.00
6,*CC(*)C(=O)Nc1ccccc1Cl (repeat unit),63.00
7,*OC(F)(F)C(F)(F)C(F)(F)C(*)(F)F (repeat unit),-55.00
8,*CC(*)C(=O)c1ccc(C)c(C)c1 (repeat unit),42.00
9,*CCOCCOCCOC(=O)CCCCC(=O)O* (repeat unit),-49.00
10,*c1ccc(-c2ccc(-c3cc(-c4ccc(Oc5ccc(Oc6ccccc6)cc5)cc4)c4cc(-c5ccc6nc(*)cc(-c7ccc(Oc8ccc(Oc9ccccc9)cc8)cc7)c6c5)ccc4n3)cc2)cc1 (repeat unit),355.00
11,*Oc1ccc(C(=O)Nc2ccc(Cc3ccc(NC(=O)c4ccc(Oc5nc(*)nc(Sc6ccccc6)n5)cc4)cc3)cc2)cc1 (repeat unit),302.00
12,*Oc1ccc(C(=O)c2ccc(OC(=O)OC3C(C)(C)C(OC(*)=O)C3(C)C)cc2)cc1 (repeat unit),125.00
13,*Oc1ccc(CC(NC(=O)CCc2ccc(OC(=O)CCC(*)=O)cc2)C(=O)OCCCCCCCC)cc1 (repeat unit),48.00
14,*c1ccc(Oc2ccc(-c3nnc(*)o3)cc2)cc1 (repeat unit),240.00
15,*c1ccc(-c2ccc(-n3c(-c4ccc(Oc5ccc(S(=O)(=O)c6ccc(Oc7ccc(-c8nc9ccccc9n8*)cc7)cc6)cc5)cc4)nc4ccccc43)cc2)cc1 (repeat unit),289.00
16,*CC(*)CCCI (repeat unit),30.00
17,*CC(*)CO (repeat unit),36.00
18,*c1ccc(Oc2ccc(C(=O)c3ccc(Oc4ccc(-c5cc(*)[nH]n5)cc4)cc3)cc2)cc1 (repeat unit),229.00
19,*Oc1c(C)cc(C(C)(C)c2cc(C)c(OC(=O)c3ccc(C(*)=O)cc3)c(C)c2)cc1C (repeat unit),239.00
20,*c1cccc(P(=O)(c2ccccc2)c2cccc(-n3c(=O)c4c(-c5ccccc5)c5c(=O)n(*)c(=O)c5c(-c5ccccc5)c4c3=O)c2)c1 (repeat unit),342.00
21,*CC1CC2CC1C1CCC(CN3C(=O)c4ccc(C(c5ccc6c(c5)C(=O)N(*)C6=O)(C(F)(F)F)C(F)(F)F)cc4C3=O)C21 (repeat unit),207.00
22,*c1cc(C(c2ccc(OCCN(C)c3ccc(/C=C/C4=CC(=C(/C#N)C(=O)OC)/CC(C)(C)C4)cc3)c(N3C(=O)c4ccc(Oc5ccc6c(c5)C(=O)N(*)C6=O)cc4C3=O)c2)(C(F)(F)F)C(F)(F)F)ccc1OCCN(c1ccccc1)c1ccc(/C=C/C2=CC(=C(/C#N)C(=O)OC)/CC(C)(C)C2)cc1 (repeat unit),207.00
23,*CC(OCC)C1C(=O)OC(=O)C1* (repeat unit),146.00
24,*CC(*)OC(=O)c1ccc(OCC)cc1 (repeat unit),70.00
25,*C(=O)c1ccc2c(c1)C(=O)N(c1ccc(-c3c(-c4ccc(-c5ccccc5)cc4)cc(-c4ccc(OCCCCCCCCCCOc5ccc(-c6cc(-c7ccc(-c8ccccc8)cc7)c(-c7ccc(N8C(=O)c9ccc(*)cc9C8=O)cc7)c(-c7ccc(-c8ccccc8)cc7)c6)cc5)cc4)cc3-c3ccc(-c4ccccc4)cc3)cc1)C2=O (repeat unit),103.50
